Source: patent US5618675A, “Methods and compositions for detecting lipopolysaccharides using CAP18 fragments” (Panorama Research, Inc., dated 1997)
Values joined by “and” are separate entries in the source; they are usually repeats but may differ in a detail not shown here. Equal entries are not always repeated.

How the values were obtained:
[1] = system: RAW 264.7 cells; assay type: cell-based, murine; conditions: for Inhibition of LPS-induced RNI-IC50: LPS-induced (2.5 ng/ml LPS in FIG. 6B)
Method: From the sequence of the CAP18 cDNA, it was apparent that the putative N-terminal peptide of CAP18 was in fact an internal fragment of the CAP18 protein. We therefore tried to reconfirm the original protein sequence. Neutrophil-derived heparin bound cationic proteins were prepared as described above and applied to a C18 reverse phase HPLC (FIG. 1). We sequenced the major peaks. Peaks at fractions 14.5 and 15.2 correspond to defensins MCP1 and MCP2 (Territo et al. (1989) J. Clin. Invest. 84:2017-2019), respectively. Fraction 25.8 is macrophage related protein 14 (MRP14) (Odink et al. (1987) Nature 330:80-82). The fraction at 20.3 minutes corresponds to a fragment of CAP18 of approximately 4-5 kD. […] The murine macrophage cell line RAW 264.7 (obtained from ATCC) and thioglycolate-elicited murine peritoneal exudate cells are used to produce RNI. Cells are cultured at 1×10^6 /ml. in RPMI-1640 +2.5% FCS in 24 well plates in the presence or absence of different concentrations of LPS or murine rlFNγ. After 24 hr. incubation at 37° C. the cell free supernatant is collected and tested for the presence of RNI. Accumulation of nitrite in the medium is measured by a colorimetric assay based on the Griess reaction (Green et al. (1982) Anal. Biochem. 126:11) using sodium nitrite as standards. Sample (50 μl) is mixed with 50 μl of Griess reagent (1% sulfanilamide, 0.1% naphthalene diamine dihydrochloride, 2.5% H3 PO4) and after 10 min. at room temperature absorbance is read at 570 nm.

[2] = system: Salmonella minnesota ReLPS sensitized sheep erythrocytes; assay: LPS hemagglutination assay (MAC); assay type: binding
Method: For hemagglutination assays, erythrocytes were sensitized with LPS as follows. One ml of 1% erythrocyte suspension (human 0 type, C3H/HeN mouse or sheep) was mixed with 0.2 ml of LPS solution and incubated at 37° C. for 30 min, followed by washing with phosphate buffered saline (PBS), and then the concentration of suspension was adjusted to 1.0%. In the case of S-LPS, the solution was heated at 100° C. for 1 hour before sensitization of erythrocytes. […] Activity of CAP was expressed as a minimum agglutinating concentration (MAC) of CAP. According to the method of Kirikae et al. (1986) Microbiol. Immunol. 30:269-274, 50 μl of 2-fold serial dilution of Re-LPS was added to 50 μl of 1.0% rabbit erythrocyte suspension, and incubated at 37° C. for 3, hour. Minimum agglutinating concentration of Re-LPS was expressed as 1 HA unit.

[3] = system: Salmonella minnesota Re; assay: Antibacterial CFU assay; conditions: FIG. 6C
[4] = system: thioglycolate-stimulated murine peritoneal macrophages; assay: LPS-induced tissue factor generation by macrophages; assay type: cell-based; conditions: peptide 1 μg/ml; 6 hr; FIG. 12
Method: […] Cells were cultured for 6 hours prior to assay of tissue factor by clotting assay.
[…] Production of tissue factor after 6 hr. was measured by clotting assay. […] In the absence of LPS no tissue factor is synthesized by these cells.

[5] = system: Salmonella typhimurium; assay: Antibacterial CFU assay; conditions: for anti-bacterial activity (CFU), words: FIG. 6D; for effect on CFU at high concentrations alone and in various combinations: FIG. 6F
[6] = target: purified human factor Xa (human, UniProt P00742); assay: cell-based or functional assay
[7] = target: T1, purified human factor X (human, UniProt P00742); assay: cell-based or functional assay
[8] = target: T1, purified human factor X; assay: cell-based or functional assay; remark: listed apart in the source
[9] = target: prothrombin (factor II)
[10] = system: cells; assay: Effect of CAP-37 on LPS-induced tissue factor generation; assay type: cell-based; conditions: for Tissue factor, figure in parentheses (relative to control = 1.0) / Tissue Factor / Activity: CAP-37 15 HA; for Activity: LPS alone = 100
Method: Table 6 presents a comparison of the effect of RNIP, CAP18, and defensins HP-1 and HP-2 (Territo et al. (1989) J. Clin. Invest. 84:2017-2019) on LPS-induced tissue factor generation. Tissue factor assays were performed as follows. Mouse peritoneal cells were elicted with an intraperitoneal injection of thioglycolate medium and harvested 5-days later by irrigation with pyrogen-free saline. The cells were washed with RPMI 1640 medium, counted and resuspended at a concentration of 1.5-2.0×10^6 /ml in serum-free RPMI medium containing glutamine (0.29 mg/ml), penicillin (50 units/ml) and streptomycin (50/ml). Adherent cells were prepared by incubating 10 ml of a cell suspension (in RPMI 1640 media in sterile culture bottle (Nunclon, 50 ml, Inter Med) for 60 min. at 37° C. in a 5% CO2 atmosphere. The plastic adherent cells were recovered by scraping of the bottle with a sterile rubber policeman. The adherent cells were then washed twice with RPMI media, resuspended in serum-free medium (1×10^6 /ml) in culture tube (Nunc cryotube, Inter Med), and stimulated with graded doses of LPS for 6 hr. at 37° C. in a 5% CO2. The cell suspension was centrifuged and cell pellet was frozen at -80° C. until clotting assays were run.
Veronal buffered saline (VBS) was added to the cell pellet, lysed by 3 cycles of freeze/thaw and sonicated for 10 sec with a hand-held sonicator microbe (Handy Sonic, model UR-20P, Tomy Seiko LTD, Tokyo). Tissue factor activity was tested in modified unactivated partial thromboplastin time (7). One tenth ml of cell lysate (1×10^6 /ml) was preincubated with mouse plasma at 37° C. for 3 min. Then 0.1 ml of 25 mM-CaCl2 which contains phospholipid was added to the mixture and clotting time was measured using a fibrometer (Bio Quest Division, Becton Dickinson, Cokeysville, USA). A standard curve obtained from serial two-fold dilutions of rabbit brain thromboplastic (Simplastin, Ono Pharmaceutical Co.) was used to transpose tissue factor activity into arbitrary tissue factor units (1 μg/ml) suspension of rabbit brain was assigned a value of 1,000 units).
.dagger. LPS was incubated with CAP37 at 37° C. for 2 hours, and
the mixture was added to cells, then cultured for 6 hours.

## 21-1: synthetic rabbit RNIP-derived fragment, amino acids 135-151 of SEQ ID NO:4 (GLRKRLRKFRNKIKEKL)
[1]
  Inhibition of LPS-induced RNI-IC50: > 2 µg/mL
[2]
  Hemagglutination MAC (minimum agglutinating concentration): > 125 µg/mL

## 32-1: synthetic rabbit RNIP-derived fragment, amino acids 135-143 of SEQ ID NO:4 (GLRKRLRKF)
[1]
  Inhibition of LPS-induced RNI-IC50: > 2 µg/mL
[3]
  anti-bacterial activity (CFU), words: not active
[4]
  inhibition of LPS induced tissue factor: fail to inhibit
[5]
  anti-bacterial activity (CFU), words: not active
  effect on CFU at high concentrations alone and in various combinations: No effect
[5]; FIG. 6G
  effect of pretreatment with peptide 32-1 on bacterial killing by peptide 197: no inhibition or augmentation
[2]
  Hemagglutination MAC (minimum agglutinating concentration): > 125 µg/mL

## 34-1: synthetic rabbit RNIP-derived fragment, amino acids 140-166 of SEQ ID NO:4 (LRKFRNKIKEKLKKIGQKIQGLLPKLA)
[1]
  Inhibition of LPS-induced RNI-IC50: > 2 µg/mL
[2]
  Hemagglutination MAC (minimum agglutinating concentration): > 125 µg/mL

## 50-1: synthetic rabbit RNIP-derived fragment, amino acids 147-171 of SEQ ID NO:4 (IKEKLKKIGQKIQGLLPKLAPRTDY)
[1]
  Inhibition of LPS-induced RNI-IC50: 0.3 µg/mL
[2]
  Hemagglutination MAC (minimum agglutinating concentration): > 125 µg/mL

## 50-2: synthetic rabbit RNIP-derived fragment, amino acids 147-171 of SEQ ID NO:4 (same range printed as 50-1) (IKEKLKKIGQKIQGLLPKLAPRTDY)
[1]
  Inhibition of LPS-induced RNI-IC50: 0.3 µg/mL
[3]
  anti-bacterial activity (CFU), words: not active
[4]
  inhibition of LPS induced tissue factor: fail to inhibit
[5]
  anti-bacterial activity (CFU), words: not active
  effect on CFU at high concentrations alone and in various combinations: No effect
[2]
  Hemagglutination MAC (minimum agglutinating concentration): > 125 µg/mL

## 52-1: synthetic rabbit RNIP-derived fragment, amino acids 143-169 of SEQ ID NO:4 (FRNKIKEKLKKIGQKIQGLLPKLAPRT)
[1]
  Inhibition of LPS-induced RNI-IC50: > 2 µg/mL
[2]
  Hemagglutination MAC (minimum agglutinating concentration): > 125 µg/mL

## 52-2: synthetic rabbit RNIP-derived fragment, amino acids 143-170 of SEQ ID NO:4 (FRNKIKEKLKKIGQKIQGLLPKLAPRTD)
[1]
  Inhibition of LPS-induced RNI-IC50: > 2 µg/mL
[2]
  Hemagglutination MAC (minimum agglutinating concentration): > 125 µg/mL

## 52-3: synthetic rabbit RNIP-derived fragment, amino acids 132-171 of SEQ ID NO:4 as printed (EPTGLRKRLRKFRNKIKEKLKKIGQKIQGLLPKLAPRTDY)
[1]
  Inhibition of LPS-induced RNI-IC50: > 2 µg/mL
[2]
  Hemagglutination MAC (minimum agglutinating concentration): > 125 µg/mL

## 54-1: synthetic rabbit RNIP-derived fragment, amino acids 139-170 of SEQ ID NO:4 (RLRKFRNKIKEKLKKIGQKIQGLLPKLAPRTD)
[1]
  Inhibition of LPS-induced RNI-IC50: > 2 µg/mL
[2]
  Hemagglutination MAC (minimum agglutinating concentration): > 125 µg/mL

## 54-2: synthetic rabbit RNIP-derived fragment, amino acids 139-171 of SEQ ID NO:4 (RLRKFRNKIKEKLKKIGQKIQGLLPKLAPRTDY)
[1]
  Inhibition of LPS-induced RNI-IC50: > 2 µg/mL
[2]
  Hemagglutination MAC (minimum agglutinating concentration): > 125 µg/mL

## 187: synthetic rabbit RNIP-derived fragment, amino acids 151-171 of SEQ ID NO:4 (LKKIGQKIQGLLPKLAPRTDY) [compound 187]
[1]
  activity in hemagglutination and inhibition of LPS-induced RNI: inactive
  Inhibition of LPS-induced RNI-IC50: > 10 µg/mL
[2]
  Hemagglutination MAC (minimum agglutinating concentration): > 125 µg/mL

## polymyxin B [reference compound]
[1]; LPS 5ng/ml, FIG. 4
  inhibition of LPS-induced RNI production: inhibition

## GLRKRLRKFRNKIKEKLKKIGQKIQGLLPKLA [synthetic rabbit RNIP-derived peptide 36-1]
[6]
  IC50, Xa-induced clotting: 2.2 µg/ml and 0.4 µM
[7]
  IC50, Russell Viper Venom induced clotting: 0.9 µg/ml and 0.2 µM
[8]
  IC50, RVV activation of factor X to Xa (synthetic substrate): 10 µg/ml and 1.9 µM
  IC50, factor X activation by tissue factor and factor VII (synthetic substrate): 100 nM
[9]
  IC50, prothrombin activation by factor Xa (synthetic substrate): < 30 nM

B1: CAP-37: another cationic peptide CAP37 (azurocidin) (Morgan et al. 1991) (protein, UniProt P20160 27-248, looked up)
Azurocidin: IVGGRKARPRQFPFLASIQNQGRHFCGGALIHARFVMTAASCFQSQNPGVSTVVLGAYDLRRRERQSRQTFSISSMSENGYDPQQNLNDLMLLQLDREANLTSSVTILPLPLQNATVEAGTRCQVAGWGSQRSGGRLSRFPRFVNVTVTPEDQCRPNNVCTGVLTRRGGICNGDGGTPLVCEGLAHGVASFSLGPCGRGPDFFTRVALFRDWIDGVLNNPGP
[10]
  inhibition of tissue factor generation: unable to inhibit
[10]; LPS 0.1 μg/ml
  Tissue factor, figure in parentheses (relative to control = 1.0): 2.3
  Activity: 93.0
[10]; LPS 0.1 μg/ml, LPS alone 412 ± 30
  Tissue Factor: 383 ± 307 units/1 × 10^5 cells
[10]; LPS 1.0 μg/ml
  Tissue factor, figure in parentheses (relative to control = 1.0): 3.9
  Activity: 93.6
[10]; LPS 1.0 μg/ml, LPS alone 692 ± 27
  Tissue Factor: 648 ± 343 units/1 × 10^5 cells
[10]; no LPS
  Tissue factor, figure in parentheses (relative to control = 1.0): 1.1
[10]; no LPS, control 168 ± 95
  Tissue Factor: 183 ± 67 units/1 × 10^5 cells

## GLRKRLRKFRNKIKEKLKKIGQKIQGLLPKLAPRTDY
[6]
  IC50, Xa-induced clotting: 2.7 µg/ml and 0.5 µM
[7]
  IC50, Russell Viper Venom induced clotting: 0.7 µg/ml and 0.1 µM
[8]
  IC50, RVV activation of factor X to Xa (synthetic substrate): 6.7 µg/ml and 1.1 µM
[9]
  IC50, prothrombin activation by factor Xa (synthetic substrate): 50 nM
